Assay results from paper PMC6095626, “Screening of the Pathogen Box for inhibitors with dual efficacy against Giardia lamblia and Cryptosporidium parvum” (PLoS Neglected Tropical Diseases, 2018).

Assays:
[1] = test system: G. lamblia trophozoites (luciferase expressing, WBC6); test: microbe, parasite or virus in culture; type: cell-based, Giardia lamblia; conditions: initial Pathogen Box screen, single concentration 16 µM, inhibition compared to DMSO wells
Protocol: Trophozoites were harvested by chilling cultures on ice for 30 minutes and plated by adding 150 μL per well at a concentration of 250,000 cells/mL. Metronidazole (Sigma, St. Louis, MO) was used as a control and was serially diluted 1:2 from 40 μM to 0.04 μM and 150 μL was added to the 150 μL of the G. lamblia trophozoites. Plates were covered in plastic low-evaporation lids, sealed in individual anaerobic BD GasPak Bio-Bags (Becton Dickinson, San Jose, CA) and incubated at 37 °C for 24 hours. […] A duplicate plate was concurrently set up and assayed using a MOXI Z Mini Automated Cell Counter Kit (Orflo, Ketchum, ID). Results obtained from the bioluminescence assay and the MOXI counter data were compared to evaluate their correlation to each another. Albendazole (Sigma, St. Louis, MO), an alternative giardiasis therapeutic, was assayed in concentrations from 4 μM to 0.004 μM with only the luciferase expressing G. lamblia cells. […]

[2] = test system: C. parvum (UGA1 Nluc expressing strain in HCT-8 cells); test: microbe, parasite or virus in culture; type: cell-based, Cryptosporidium parvum; conditions: for Crypto (10 uM) Mean % inhibition: initial Pathogen Box screen, single concentration 10 µM, inhibition compared to DMSO wells
Protocol: Growth inhibition and EC50 determination assays were performed using UGA1 Nluc expressing C. parvum strain in HCT-8 cells (ATCC^©, Manassas, VA) as previously described. HCT-8 cells were inoculated onto 96-well plates and allowed to grow for 48 hours to 90–100% confluence and then treated with single concentration (10 μM) or serially diluted compounds prior to oocyst infection. C. parvum oocysts were incubated for 10 minutes in 10% bleach at room temperature and then washed with DPBS. […] The cell monolayers were lysed for 1 hour before adding Nano-Glo® luciferase reagent (Promega, Madison, WI), and measuring relative luminescence units (RLU) in an EnVision Plate Reader (Perkin Elmer, Waltham, MA). Several parameters, including reproducibility and reliability, were previously evaluated to optimize this assay for low and high-throughput (HTP) screening of small molecule compounds against C. parvum. EC50 values were calculated using Prism 7 software (GraphPad Software, San Diego, CA).
C. parvum screening against the Pathogen Box compounds was performed as previously described starting at a concentration of 10 μM [23].

Compound	Giardia (16 uM) Mean % inhibition [1]	Crypto (10 uM) Mean % inhibition [2]	C. parvum cell growth inhibition in the initial screen ([2]; 10 μM, 48 hours) [%]	EC50 ([2]; Nluc C. parvum in HCT-8 cells, 48 hours, read-out: C. parvum EC50) [nM]
COc1ccc(CCN2CCC(NCc3cccc(N(C)C)c3)CC2)cc1 [MMV011511]	73%	X* (Mean or standard deviation are negative but not significantly different from the control to be a growth promoter)	–	–
NCC(=O)N1CCn2c(nc(-c3ccccc3)c2Nc2ccc3c(c2)OCO3)C1 [MMV011691]	20%	X* (Mean or standard deviation are negative but not significantly different from the control to be a growth promoter)	–	–
FC(F)(F)c1cnc(Sc2nnc(-c3ccncc3)o2)c(Cl)c1 [MMV011765]	53%	89%	–	–
Cc1ccc(NC(=O)c2nc[nH]c2C(=O)Nc2nc3ccccc3[nH]2)c(C)c1 [MMV011903]	21%	62%	–	–
Cc1nc2ccccn2c1C(=O)NCc1ccc(Cl)cc1 [MMV012074]	14%	57%	–	–
Cc1cc(Nc2ccncc2)n2nc(C)c(-c3ccccc3Cl)c2n1 [MMV016136]	X* (Mean or standard deviation are negative but not significantly different from the control to be a growth promoter)	46%	–	–
Cc1ccc(-c2cc(C(=O)Nc3cccnc3)c3cc(Br)ccc3n2)cc1 [MMV016838]	63%	42%	–	–
Cc1cc(C)n2nc(C(=O)Nc3cc(C(F)(F)F)ccc3N3CCOCC3)nc2n1 [MMV019087]	X* (Mean or standard deviation are negative but not significantly different from the control to be a growth promoter)	35%	–	–
Cc1ccc2c(c1C)NC(=O)C21NN=C(c2ccccc2)S1 (centres unmarked) [MMV019189]	X* (Mean or standard deviation are negative but not significantly different from the control to be a growth promoter)	95%	≥ 95	2520
COc1ccc(C2CC(c3cccs3)=NN2C(=O)c2ccco2)cc1OC (centres unmarked) [MMV019234]	20%	X* (Mean or standard deviation are negative but not significantly different from the control to be a growth promoter)	–	–
CCC(NC(=O)c1ccccc1NC(=O)c1ccc(C)cc1)C(=O)OC (centres unmarked) [MMV019551]	5.53%	23%	–	–
CCN(CC)S(=O)(=O)c1ccc(Cl)c(C(=O)Nc2ccc3nc(C)sc3c2)c1 [MMV019721]	15%	82%	–	–
Cc1ccc(S(=O)(=O)N2CCN(C(=O)c3cc(-c4ccccc4)n[nH]3)CC2)cc1 [MMV019742]	X* (Mean or standard deviation are negative but not significantly different from the control to be a growth promoter)	X* (Mean or standard deviation are negative but not significantly different from the control to be a growth promoter)	–	–
CCOc1ccccc1C(=O)Nc1cccc(-c2nc3ncccn3c2C)c1 [MMV019790]	X* (Mean or standard deviation are negative but not significantly different from the control to be a growth promoter)	X* (Mean or standard deviation are negative but not significantly different from the control to be a growth promoter)	–	–
Cc1ccc2cc(C3NC(=O)c4ccccc4N3)c(Cl)nc2c1 (centres unmarked) [MMV019807]	24%	79%	–	–
O=C(Nc1ccnc(-c2cccnc2)n1)c1cc(C(F)(F)F)cc(C(F)(F)F)c1 [MMV019838]	16%	71%	–	–
Cc1nn(C)cc1C(C)Nc1nncc(-c2ccc(C(F)(F)F)cc2)n1 (centres unmarked) [MMV019993]	22%	X* (Mean or standard deviation are negative but not significantly different from the control to be a growth promoter)	–	–

Compound	Giardia (16 uM) Mean % inhibition [1]	Crypto (10 uM) Mean % inhibition [2]	C. parvum cell growth inhibition in the initial screen ([2]; 10 μM, 48 hours) [%]	EC50 ([2]; Nluc C. parvum in HCT-8 cells, 48 hours, read-out: C. parvum EC50) [nM]
COc1cccc(CC(=O)N2CCC(n3c(C)nc4ccc(F)cc43)CC2)c1 [MMV020081]	X* (Mean or standard deviation are negative but not significantly different from the control to be a growth promoter)	X* (Mean or standard deviation are negative but not significantly different from the control to be a growth promoter)	–	–
CC1CC1C(=O)NC1CCN(CC2(c3ccccc3)CCCCC2)CC1 (centres unmarked) [MMV020120]	2.27%	66%	–	–
CNC(=O)c1cc(S(=O)(=O)N2CCN(c3ccccn3)CC2)cs1 [MMV020136]	X* (Mean or standard deviation are negative but not significantly different from the control to be a growth promoter)	X* (Mean or standard deviation are negative but not significantly different from the control to be a growth promoter)	–	–
Cc1cc(C(=O)Nc2ccc(-c3ccccc3)cc2)no1 [MMV020152]	43%	X* (Mean or standard deviation are negative but not significantly different from the control to be a growth promoter)	–	–
CC(C)NCC(=O)Nc1cccc(C(=O)Nc2cccc(C(F)(F)F)c2)c1 [MMV020165]	81%	45%	–	–
Cc1ccc(NC(=O)c2cc(S(=O)(=O)NC(C)(C)C)ccc2C)nc1 [MMV020289]	26%	X* (Mean or standard deviation are negative but not significantly different from the control to be a growth promoter)	–	–
CC(C(=O)N1CCCC1)N1CCN(S(=O)(=O)c2ccc(C(C)(C)C)cc2)CC1 (centres unmarked) [MMV020291]	13%	61%	–	–
Cc1nnc(NC(=O)c2cn(-c3ccccc3)nc2-c2ccccc2C)o1 [MMV020320]	X* (Mean or standard deviation are negative but not significantly different from the control to be a growth promoter)	91%	–	–
COc1ccccc1C(C)NCC(=O)Nc1cc(C(F)(F)F)ccc1Cl (centres unmarked) [MMV020321]	X* (Mean or standard deviation are negative but not significantly different from the control to be a growth promoter)	83%	–	–
CC1CCCN(C(=O)C(C)Nc2cc(Cl)ccc2N2CCOCC2)C1 (centres unmarked) [MMV020388]	62%	X* (Mean or standard deviation are negative but not significantly different from the control to be a growth promoter)	–	–
CC(C)C(C(=O)Nc1ccc(S(=O)(=O)N(C)C)cc1)c1ccc(Cl)cc1 (centres unmarked) [MMV020391]	8%	67%	–	–
Cc1ccc(Oc2ccc(NC(=O)CNc3ccccc3N3CCCC3=O)cc2)cc1 [MMV020512]	X* (Mean or standard deviation are negative but not significantly different from the control to be a growth promoter)	80%	–	–
COc1ccccc1CNC(=O)c1cc(C2CC2)nc2c1cnn2C(C)C [MMV020517]	X* (Mean or standard deviation are negative but not significantly different from the control to be a growth promoter)	X* (Mean or standard deviation are negative but not significantly different from the control to be a growth promoter)	–	–
Cc1cc2ccccc2n1CC(=O)N1CC(C(=O)N2CCCCC2)Oc2ccccc21 (centres unmarked) [MMV020520]	6.36%	68%	–	–
O=C(NC1CC1)c1ccc(N2CCOc3ccc(Cl)cc32)s1 [MMV020537]	4.66%	55%	–	–
CC(C)C(NC(=O)Cc1cccc2ccccc12)C(=O)Nc1cccc(C#N)c1 (centres unmarked) [MMV020591]	16%	55%	–	–
